According to the NIST ThermoML archive (doi:10.1016/j.tca.2015.02.001):
Numbers after ± are expanded uncertainties.

What was measured:
[1] = Molar enthalpy of transition or fusion; conditions: Crystal; DSC
[2] = Crystal; DTA

Row | Molar enthalpy of transition or fusion [1] | Triple point temperature [2] | Compound
1 | 3.39 ± 0.335 kcal/mol | 359.15 ± 2 K | CCn1cc[n+](C)c1.[Cl-] [1-ethyl-3-methylimidazolium chloride]
2 | 4.04 ± 0.311 kcal/mol | 347.15 ± 2 K | CCn1cc[n+](C)c1.[I-] [1-ethyl-3-methylimidazolium iodide]
3 | 4.61 ± 0.359 kcal/mol | 340.15 ± 2 K | CCn1cc[n+](C)c1.[Br-] [1-ethyl-3-methylimidazolium bromide]
